# Measurements published in US20140107109A1, “AMINO-DIHYDROTHIAZINE AND AMINO-DIOXIDO DIHYDROTHIAZINE COMPOUNDS AS BETA-SECRETASE ANTAGONISTS AND METHODS OF USE” (Amgen Inc., priority 2012, published 2014).
# pIC50: −log10 of the molar value.
# What was measured:
# [1] = target: Beta Secretase enzyme (BACE1) (Homo sapiens, UniProt P56817); experiment: In vitro enzymatic BACE FRET assay; format: biochemical; conditions: average IC50, enzyme assay; read-out: BACE1 FRET assay IC50
# Outline: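 Readout: dequenched fluorescence (ex 488 nm/[…]) after neutralizing with Tris buffer. Reactions, begun by adding 50 nM quenched peptide substrate spanning the BACE cleavage site, were incubated one hour at pH 4.2 in 0.05 M acetate with 100 uM genapol and 10% final DMSO.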
# Cathepsin D (Cat D) = target: T1, Cathepsin D (Cat D) (Homo sapiens, UniProt P07339); experiment: In vitro enzymatic Cathepsin D (Cat D) FRET assay; format: biochemical; conditions: read-out: CatD IC50
# T1 construct: Recombinant Cat D was expressed in CHO cells; made in house; host or cells: CHO cells
# Outline: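 FRET read-out: a fluorophore/quencher-labelled peptide substrate is cleaved by 9 nM Cat D (recombinant, CHO-expressed) following a one-hour preincubation with inhibitor dilutions in DMSO. Tris buffer added to neutralize pH ends the reaction before fluorescence measurement.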
# [2] = system: Aβ40 in conditioned medium of cells stably expressing Amyloid Precursor Protein (APP); experiment: In vitro BACE cell-based assay (HEK cell assay), Aβ40 sandwich ELISA; conditions: Homo sapiens, HEK293; average IC50, cell assay
# Outline: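 Aβ40 in conditioned medium was quantified by time-resolved fluorescence sandwich ELISA (pAb40 capture 3 h at 4 °C, biotin-6E10 detection 2 h at 4 °C) after 24 h compound exposure of APP-expressing cells. Doses spanned 10 points from 100 μM or 10 μM top, 0.1% DMSO; IC50 was derived from percent of control.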
# Beta Secretase enzyme (BACE1), sequence (P56817 46-501): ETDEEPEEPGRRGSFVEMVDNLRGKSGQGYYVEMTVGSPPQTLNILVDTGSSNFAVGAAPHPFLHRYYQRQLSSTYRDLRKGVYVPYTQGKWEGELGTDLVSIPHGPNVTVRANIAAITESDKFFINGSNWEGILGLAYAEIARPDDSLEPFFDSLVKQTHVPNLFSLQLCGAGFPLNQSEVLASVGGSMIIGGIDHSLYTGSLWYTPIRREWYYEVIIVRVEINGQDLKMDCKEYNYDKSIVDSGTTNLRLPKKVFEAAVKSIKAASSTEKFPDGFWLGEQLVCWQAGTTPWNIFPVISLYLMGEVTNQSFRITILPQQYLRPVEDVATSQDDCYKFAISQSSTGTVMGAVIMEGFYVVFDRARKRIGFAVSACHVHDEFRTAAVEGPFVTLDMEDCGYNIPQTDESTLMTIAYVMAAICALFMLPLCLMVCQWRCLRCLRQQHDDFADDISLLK
# T1 sequence (P07339 65-412, species assumed): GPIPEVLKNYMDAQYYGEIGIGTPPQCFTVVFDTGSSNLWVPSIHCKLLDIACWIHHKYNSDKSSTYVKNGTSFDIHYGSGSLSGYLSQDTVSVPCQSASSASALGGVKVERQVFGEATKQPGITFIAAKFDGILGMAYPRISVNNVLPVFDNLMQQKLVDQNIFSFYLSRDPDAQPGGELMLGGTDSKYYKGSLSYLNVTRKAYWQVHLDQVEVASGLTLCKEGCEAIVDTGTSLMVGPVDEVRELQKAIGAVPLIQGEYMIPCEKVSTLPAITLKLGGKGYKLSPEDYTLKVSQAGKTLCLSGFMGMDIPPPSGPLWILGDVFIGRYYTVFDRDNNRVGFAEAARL
Structure (SMILES),pIC50 [1],pIC50 (Cathepsin D (Cat D)),pIC50 [2]
"COc1cnc2c(Nc3ccc(F)c([C@]45COC[C@H]4S(=O)(=O)C(C)(C)C(N)=N5)c3)nccc2n1 [Example 248, N-(3-((4aS,7aS)-3-amino-2,2-dimethyl-1,1-dioxido-7,7a-dihydro-2H-furo[3,4-b][1,4]thiazin-4a(5H)-yl)-4-fluorophenyl)-2-methoxypyrido[3,4-b]pyrazin-5-amine]",8.52,3.70,7.68
"CC1(C)C(N)=N[C@@]2(c3cc(Nc4nccc5[nH]c(=O)cnc45)ccc3F)COC[C@H]2S1(=O)=O [Example 249, 5-((3-((4aS,7aS)-3-amino-2,2-dimethyl-1,1-dioxido-7,7a-dihydro-2H-furo[3,4-b][1,4]thiazin-4a(5H)-yl)-4-fluorophenyl)amino)pyrido[3,4-b]pyrazin-2(1H)-one]",8.20,3.99,6.82
"COc1cnc2c(Nc3ccc(F)c([C@@]4(C)N=C(N)C(C)(C)S(=O)(=O)C45CC5)c3)nccc2n1 [Example 250, N-(3-((8R)-6-amino-5,5,8-trimethyl-4,4-dioxido-4-thia-7-azaspiro[2.5]oct-6-en-8-yl)-4-fluorophenyl)-2-methoxypyrido[3,4-b]pyrazin-5-amine]",7.67,3.95,7.23
"C[C@]1(c2cc(Nc3nccc4cc(C#N)cnc34)ccc2F)N=C(N)C2(CCC2)S(=O)(=O)C1F (stereo partly drawn) [Example 251, 8-((3-((7R)-9-amino-6-fluoro-7-methyl-5,5-dioxido-5-thia-8-azaspiro[3.5]non-8-en-7-yl)-4-fluorophenyl)amino)-1,7-naphthyridine-3-carbonitrile]",9.24,4.37,7.87
"COc1ccc(CSc2ccc(F)c([C@]3(C)CS(=O)(=O)C(C)(C)C(N)=N3)c2)cc1 [Example 252, (5R)-5-(2-fluoro-5-((4-methoxybenzyl)sulfanyl)phenyl)-2,2,5-trimethyl-5,6-dihydro-2H-1,4-thiazin-3-amine 1,1-dioxide]",5.92,4.44,5.72
"CC1(C)C(N)=N[C@](C)(c2cc(Oc3nccc4nc(C(F)(F)F)cnc34)ccc2F)CS1(=O)=O [Example 253, (5R)-5-(2-fluoro-5-((2-(trifluoromethyl)pyrido[3,4-b]pyrazin-5-yl)oxy)phenyl)-2,2,5-trimethyl-5,6-dihydro-2H-1,4-thiazin-3-amine 1,1-dioxide]",7.56,2.85,5.99
"CC#CCOc1cnc2c(Nc3ccc(F)c([C@]4(C)CS(=O)(=O)C(C)(C)C(N)=N4)c3)nccc2c1 [Example 254, N-(3-((3R)-5-amino-3,6,6-trimethyl-1,1-dioxido-3,6-dihydro-2H-1,4-thiazin-3-yl)-4-fluorophenyl)-3-(2-butyn-1-yloxy)-1,7-naphthyridin-8-amine]",9.22,3.45,9.22
"CC1(C)C(N)=N[C@](C)(c2cc(Oc3cc(-c4ccc(C(F)(F)F)cc4)ccn3)ccc2F)CS1(=O)=O [Example 255, (5R)-5-(2-fluoro-5-((4-(4-(trifluoromethyl)phenyl)-2-pyridinyl)oxy)phenyl)-2,2,5-trimethyl-5,6-dihydro-2H-1,4-thiazin-3-amine 1,1-dioxide]",6.18,4.30,5.40
"Cc1cc(-c2cnc(Oc3ccc(F)c([C@]4(C)CS(=O)(=O)C(C)(C)C(N)=N4)c3)c(F)c2)on1 [Example 256, (5R)-5-(2-fluoro-5-((3-fluoro-5-(3-methyl-5-isoxazolyl)-2-pyridinyl)oxy)phenyl)-2,2,5-trimethyl-5,6-dihydro-2H-1,4-thiazin-3-amine 1,1-dioxide]",6.19,3.71,5.74
"CC(C)(C)Cc1ccc(Oc2ccc(F)c([C@]3(C)CS(=O)(=O)C(C)(C)C(N)=N3)c2)nc1 [Example 257, (5R)-5-(5-((5-(2,2-dimethylpropyl)-2-pyridinyl)oxy)-2-fluorophenyl)-2,2,5-trimethyl-5,6-dihydro-2H-1,4-thiazin-3-amine 1,1-dioxide]",4.72,3.73,5.11
"CC1(C)C(N)=N[C@](C)(c2cc(Oc3ncccc3Cl)ccc2F)CS1(=O)=O [Example 258, (5R)-5-(5-((3-chloro-2-pyridinyl)oxy)-2-fluorophenyl)-2,2,5-trimethyl-5,6-dihydro-2H-1,4-thiazin-3-amine 1,1-dioxide]",7.01,3.68,6.92
"CC1(C)C(N)=N[C@](C)(c2cc(Oc3cc(C(F)(F)F)ccn3)ccc2F)CS1(=O)=O [Example 259, (5R)-5-(2-fluoro-5-((4-(trifluoromethyl)-2-pyridinyl)oxy)phenyl)-2,2,5-trimethyl-5,6-dihydro-2H-1,4-thiazin-3-amine 1,1-dioxide]",6.82,2.98,6.61
"CC1(C)C(N)=N[C@](C)(c2cc(Nc3nccc4cc(OCC5CC5)cnc34)ccc2F)CS1(=O)=O [Example 260, N-(3-((3R)-5-amino-3,6,6-trimethyl-1,1-dioxido-3,6-dihydro-2H-1,4-thiazin-3-yl)-4-fluorophenyl)-3-(cyclopropylmethoxy)-1,7-naphthyridin-8-amine]",8.42,3.60,8.12
"CC1(C)C(N)=N[C@](C)(c2cc(Oc3ccc4ccccc4n3)ccc2F)CS1(=O)=O [Example 261, (5R)-5-(2-fluoro-5-(2-quinolinyloxy)phenyl)-2,2,5-trimethyl-5,6-dihydro-2H-1,4-thiazin-3-amine 1,1-dioxide]",6.52,4.23,6.24
"CC1(C)C(N)=N[C@](C)(c2cc(Oc3ncc(F)c(C(F)(F)F)c3F)ccc2F)CS1(=O)=O [Example 262, (5R)-5-(5-((3,5-difluoro-4-(trifluoromethyl)-2-pyridinyl)oxy)-2-fluorophenyl)-2,2,5-trimethyl-5,6-dihydro-2H-1,4-thiazin-3-amine 1,1-dioxide]",4.81,4.17,< 4.81
"Cc1cccnc1Oc1ccc(F)c([C@]2(C)CS(=O)(=O)C(C)(C)C(N)=N2)c1 [Example 263, (5R)-5-(2-fluoro-5-((3-methyl-2-pyridinyl)oxy)phenyl)-2,2,5-trimethyl-5,6-dihydro-2H-1,4-thiazin-3-amine 1,1-dioxide]",6.19,3.26,6.20
"Cc1ccnc(Oc2ccc(F)c([C@]3(C)CS(=O)(=O)C(C)(C)C(N)=N3)c2)c1 [Example 264, (5R)-5-(2-fluoro-5-((4-methyl-2-pyridinyl)oxy)phenyl)-2,2,5-trimethyl-5,6-dihydro-2H-1,4-thiazin-3-amine 1,1-dioxide]",6.74,3.06,6.90
"Cc1ccc(Oc2ccc(F)c([C@]3(C)CS(=O)(=O)C(C)(C)C(N)=N3)c2)nc1 [Example 265, (5R)-5-(2-fluoro-5-((5-methyl-2-pyridinyl)oxy)phenyl)-2,2,5-trimethyl-5,6-dihydro-2H-1,4-thiazin-3-amine 1,1-dioxide]",5.65,3.43,6.09
"Cc1cccc(Oc2ccc(F)c([C@]3(C)CS(=O)(=O)C(C)(C)C(N)=N3)c2)n1 [Example 266, (5R)-5-(2-fluoro-5-((6-methyl-2-pyridinyl)oxy)phenyl)-2,2,5-trimethyl-5,6-dihydro-2H-1,4-thiazin-3-amine 1,1-dioxide]",6.38,3.39,6.37
"CC1(C)C(N)=N[C@](C)(c2cc(Oc3ncc(C(F)(F)F)cc3Cl)ccc2F)CS1(=O)=O [Example 267, (5R)-5-(5-((3-chloro-5-(trifluoromethyl)-2-pyridinyl)oxy)-2-fluorophenyl)-2,2,5-trimethyl-5,6-dihydro-2H-1,4-thiazin-3-amine 1,1-dioxide]",6.22,3.66,6.06
"CC1(C)C(N)=N[C@](C)(c2cc(Oc3cc(N)nc(N)n3)ccc2F)CS1(=O)=O [Example 268, 6-(3-((3R)-5-amino-3,6,6-trimethyl-1,1-dioxido-3,6-dihydro-2H-1,4-thiazin-3-yl)-4-fluorophenoxy)-2,4-pyrimidinediamine]",6.50,3.04,6.52
"CC1(C)C(N)=N[C@](C)(c2cc(Oc3cccc(C(F)(F)F)n3)ccc2F)CS1(=O)=O [Example 269, (5R)-5-(2-fluoro-5-((6-(trifluoromethyl)-2-pyridinyl)oxy)phenyl)-2,2,5-trimethyl-5,6-dihydro-2H-1,4-thiazin-3-amine 1,1-dioxide]",6.61,3.88,6.24
"CC1(C)C(N)=N[C@](C)(c2cc(Oc3cnccn3)ccc2F)CS1(=O)=O [Example 270, (5R)-5-(2-fluoro-5-(2-pyrazinyloxy)phenyl)-2,2,5-trimethyl-5,6-dihydro-2H-1,4-thiazin-3-amine 1,1-dioxide]",7.03,3.65,7.29
"Cc1cc(C#N)cnc1Oc1ccc(F)c([C@]2(C)CS(=O)(=O)C(C)(C)C(N)=N2)c1 [Example 271, 6-(3-((3R)-5-amino-3,6,6-trimethyl-1,1-dioxido-3,6-dihydro-2H-1,4-thiazin-3-yl)-4-fluorophenoxy)-5-methyl-3-pyridinecarbonitrile]",6.26,3.27,6.32
